{"source": "patent US20120135923A1", "about": "“Use of Melanocortins to Treat Dyslipidemia” (IPSEN PHARMA, S.A.S., priority 2009, published 2012)", "key": {"[1]": {"molecular_target": "T1, hMC5-R (Homo sapiens, UniProt P33032)", "T1 construct": "expressed in transfected cells; host or cells: CHO-K1", "T1 sequence (P33032 whole entry)": "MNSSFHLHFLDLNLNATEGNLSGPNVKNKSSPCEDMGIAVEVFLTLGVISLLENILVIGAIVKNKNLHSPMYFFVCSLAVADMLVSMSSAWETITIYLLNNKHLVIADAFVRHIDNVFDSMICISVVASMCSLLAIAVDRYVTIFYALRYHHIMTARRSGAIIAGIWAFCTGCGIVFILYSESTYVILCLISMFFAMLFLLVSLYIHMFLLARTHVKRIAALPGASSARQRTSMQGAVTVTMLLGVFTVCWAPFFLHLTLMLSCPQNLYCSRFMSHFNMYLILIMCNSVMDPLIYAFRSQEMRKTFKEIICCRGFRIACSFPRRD", "assay": "Radioligand binding assay, [125I]-NDP-α-MSH competition, CHO-K1 membranes", "method": "Cellular membranes used for the in vitro receptor binding assays were obtained from transgenic CHO-K1 cells stably expressing hMC-R receptor subtypes 1, 3, 4 or 5. […] The pellets were resuspended in the same buffer and centrifuged at 50,000 g for 10 minutes at approximately 4° C. The washed pellets containing the cellular membranes were stored at approximately −80° C.\nCell membranes (1-10 μg protein/well) prepared as described above were incubated in 50 mM Tris-HCl at pH 7.4 containing 0.2% bovine serum albumin (BSA), 5 mM MgCl2, 1 mM CaCl2 and 0.1 mg/mL bacitracin, with increasing concentrations of the test compound and 0.1-0.3 nM [^25I]-NDP-α-MSH for approximately 90-120 minutes at approximately 37° C. […] Filters were washed three times with 50 mM Tris-HCl at pH 7.4 at a temperature of approximately 0-4° C. and then assayed for radioactivity using a Packard Topcount® scintillation counter. Binding data were analyzed by computer-assisted non-linear regression analysis (XL fit; IDBS)."}, "[2]": {"molecular_target": "T1, hMC5-R", "assay": "cyclic AMP bioassay (ECL) in CHO-K1 cells", "type": "cell-based", "experimental": "(§1) Intracellular cyclic AMP (cAMP) levels were determined by an electrochemiluminescence (ECL) assay (Meso Scale Discovery®, Gaithersburg, Md.; referred to hereinafter as MSD). […] Transgenic CHO-K1 cells stably expressing hMC receptor subtypes 1, 3, 4 or 5 were dispensed at a density of approximately 7,000 cells/well in 384-well Multi-Array®plates (MSD) containing integrated carbon electrodes and coated with anti-cAMP antibody. Increasing concentrations of the test compounds were added and the cells were incubated for approximately 40 minutes at approximately 37° C. […] At the end of the second incubation period read buffer (Tris-buffered solution containing an ECL co-reactant and Triton X-100 at ph 7.8) was added and the cAMP levels in the cell lysates were immediately determined by ECL detection with a Sector Imager 6000 Reader® (MSD). Data were analyzed using a computer-assisted non-linear regression analysis (XL fit; IDBS) and reported as either an EC50 value or a Kb value.\n(§2) The Kb value reflects the potency of an antagonist and is determined by Schild analysis. In brief, concentration-response curves of an agonist are carried out in the presence of increasing concentrations of an antagonist. […] It is calculated by extrapolating the line on a Schild plot to zero on the y-axis."}, "[3]": {"molecular_target": "T2, hMC4-R (Homo sapiens, UniProt P32245)", "T2 construct": "expressed in transfected cells; host or cells: CHO-K1", "T2 sequence (P32245 whole entry)": "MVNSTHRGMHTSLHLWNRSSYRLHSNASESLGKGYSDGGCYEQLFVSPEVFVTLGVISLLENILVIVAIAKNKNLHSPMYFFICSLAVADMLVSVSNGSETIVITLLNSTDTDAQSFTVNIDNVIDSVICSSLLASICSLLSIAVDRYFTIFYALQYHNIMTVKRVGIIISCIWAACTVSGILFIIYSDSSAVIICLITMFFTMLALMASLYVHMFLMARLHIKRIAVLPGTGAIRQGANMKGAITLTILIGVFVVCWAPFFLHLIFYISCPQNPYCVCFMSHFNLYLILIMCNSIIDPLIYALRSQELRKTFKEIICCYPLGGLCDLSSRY", "assay": "cyclic AMP bioassay (ECL) in CHO-K1 cells", "type": "cell-based"}, "[4]": {"molecular_target": "T3, hMC3-R (Homo sapiens, UniProt P41968)", "T3 construct": "expressed in transfected cells; host or cells: CHO-K1", "T3 sequence (P41968 whole entry)": "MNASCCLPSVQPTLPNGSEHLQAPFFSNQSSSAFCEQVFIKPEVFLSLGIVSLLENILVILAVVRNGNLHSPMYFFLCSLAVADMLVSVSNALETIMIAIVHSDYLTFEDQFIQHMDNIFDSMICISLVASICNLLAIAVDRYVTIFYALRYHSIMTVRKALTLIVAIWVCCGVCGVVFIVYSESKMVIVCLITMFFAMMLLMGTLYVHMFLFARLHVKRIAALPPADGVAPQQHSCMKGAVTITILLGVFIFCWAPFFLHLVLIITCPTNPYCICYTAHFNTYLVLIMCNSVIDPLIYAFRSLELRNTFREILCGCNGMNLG", "assay": "cyclic AMP bioassay (ECL) in CHO-K1 cells", "type": "cell-based"}, "[5]": {"molecular_target": "T4, hMC1-R (Homo sapiens, UniProt Q01726)", "T4 construct": "expressed in transfected cells; host or cells: CHO-K1", "T4 sequence (Q01726 whole entry)": "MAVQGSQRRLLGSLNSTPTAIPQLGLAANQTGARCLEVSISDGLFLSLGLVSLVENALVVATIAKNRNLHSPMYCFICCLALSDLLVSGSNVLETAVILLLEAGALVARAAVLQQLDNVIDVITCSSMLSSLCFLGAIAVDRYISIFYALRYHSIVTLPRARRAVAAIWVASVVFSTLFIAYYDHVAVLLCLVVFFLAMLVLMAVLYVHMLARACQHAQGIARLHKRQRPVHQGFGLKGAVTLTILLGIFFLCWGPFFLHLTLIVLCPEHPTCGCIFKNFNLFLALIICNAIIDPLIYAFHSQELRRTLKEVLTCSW", "assay": "cyclic AMP bioassay (ECL) in CHO-K1 cells", "type": "cell-based", "experimental": "as §1, §2"}}, "note": "Like-named read-outs stand apart in the source and are kept apart here. Bridge positions count the residues as written; N and C are the ends. Square brackets hold non-standard residues; d marks the D form. Peptide text beside a SMILES is read from it. Nle = CCCC[C@H](N)C(=O)O; Ava = NCCCCC(=O)O"}
{"smiles": "CC(=O)N[C@H]1CSSC[C@@H](C(N)=O)NC(=O)[C@H](C)NC(=O)[C@H](Cc2c[nH]c3ccccc23)NC(=O)[C@H](CCCNC(=N)N)NC(=O)[C@@H](Cc2ccccc2)NC(=O)[C@H](Cc2c[nH]cn2)NC(=O)[C@@H](C)NC1=O", "note": "[Ac-c(Cys-D-Ala-His-D-Phe-Arg-Trp-Ala-Cys)-NH2] (Ac-C[dA]H[dF]RWAC-NH2; disulfide 1-8 (inferred))", "values": [{"measurement": "Ki", "setting": "[1]; Table 5, read-out: Ki hMC5-R", "value": "> 10000", "unit": "nM"}]}
{"smiles": "C[C@H]1NC(=O)[C@@H](NC(=O)CN2C(=O)N[C@@H](CCCNC(=N)N)C2=O)CSSC[C@@H](C(N)=O)NC(=O)[C@H](Cc2c[nH]c3ccccc23)NC(=O)[C@H](CCCNC(=N)N)NC(=O)[C@@H](Cc2ccc3ccccc3c2)NC(=O)[C@H](Cc2cnc[nH]2)NC1=O", "note": "[Hydantoin(C(O)-(Arg-Gly))-c(Cys-D-Ala-His-D-2-Nal-Arg-Trp-Cys)-NH2]", "values": [{"measurement": "EC50", "setting": "[2]", "value": 103, "unit": "nM"}, {"measurement": "EC50", "setting": "[3]", "value": 21.2, "unit": "nM"}, {"measurement": "Ki", "setting": "[1]; Ki hMC5, Table 7", "value": 14.6, "unit": "nM"}, {"measurement": "EC50", "setting": "[4]", "value": 13.1, "unit": "nM"}, {"measurement": "EC50", "setting": "[5]", "value": 96.6, "unit": "nM"}]}
{"smiles": "N=C(N)NCCC[C@@H]1NC(=O)[C@@H](Cc2ccccc2)NC(=O)[C@H](Cc2c[nH]cn2)NC(=O)[C@H](CCC(=O)O)NC(=O)[C@@H](NC(=O)CN2C(=O)N[C@@H](CCCNC(=N)N)C2=O)CSSC[C@@H](C(N)=O)NC(=O)[C@H](Cc2c[nH]c3ccccc23)NC1=O", "note": "[Hydantoin(C(O)-(Arg-Gly))-c(Cys-Glu-His-D-Phe-Arg-Trp-Cys)-NH2]", "values": [{"measurement": "EC50", "setting": "[2]; Table 11, read-out: EC50 hMC5", "value": 4010, "unit": "nM"}, {"measurement": "EC50", "setting": "[3]; Table 11, read-out: EC50 hMC4", "value": 0.0979, "unit": "nM"}, {"measurement": "EC50", "setting": "[4]; Table 11, read-out: EC50 hMC3", "value": 7.86, "unit": "nM"}, {"measurement": "EC50", "setting": "[5]; Table 11, read-out: EC50 hMC1", "value": 8.83, "unit": "nM"}]}
{"smiles": "N=C(N)NCCC[C@@H]1NC(=O)[C@@H](Cc2ccccc2)NC(=O)[C@H](Cc2cnc[nH]2)NC(=O)[C@H](CCC(=O)O)NC(=O)[C@@H](NC(=O)[C@H](CCCNC(=N)N)N2C(=O)CNC2=O)CSSC[C@@H](C(N)=O)NC(=O)[C@H](Cc2c[nH]c3ccccc23)NC1=O", "note": "[Hydantoin(C(O)-(Gly-Arg))-c(Cys-Glu-His-D-Phe-Arg-Trp-Cys)-NH2]", "values": [{"measurement": "EC50", "setting": "[2]; Table 11, read-out: EC50 hMC5", "value": 335, "unit": "nM"}, {"measurement": "EC50", "setting": "[3]; Table 11, read-out: EC50 hMC4", "value": 0.0687, "unit": "nM"}, {"measurement": "EC50", "setting": "[4]; Table 11, read-out: EC50 hMC3", "value": 3.63, "unit": "nM"}, {"measurement": "EC50", "setting": "[5]; Table 11, read-out: EC50 hMC1", "value": 9.97, "unit": "nM"}]}
{"smiles": "C[C@H]1NC(=O)[C@@H](NC(=O)CN2C(=O)CNC2=O)CSSC[C@@H](C(N)=O)NC(=O)[C@H](Cc2c[nH]c3ccccc23)NC(=O)[C@H](CCCNC(=N)N)NC(=O)[C@@H](Cc2ccccc2)NC(=O)[C@H](Cc2cnc[nH]2)NC1=O", "note": "[Hydantoin(C(O)-(Gly-Gly))-c(Cys-D-Ala-His-D-Phe-Arg-Trp-Cys)-NH2]", "values": [{"measurement": "EC50", "setting": "[2]", "value": 201, "unit": "nM"}, {"measurement": "EC50", "setting": "[3]", "value": 0.336, "unit": "nM"}, {"measurement": "Ki", "setting": "[1]; Ki hMC5, Table 7", "value": 50, "unit": "nM"}, {"measurement": "EC50", "setting": "[4]", "value": 2.46, "unit": "nM"}, {"measurement": "EC50", "setting": "[5]", "value": 14.2, "unit": "nM"}]}
{"smiles": "CCCC[C@@H]1NC(=O)N(CC(=O)N[C@H]2CSSC(C)(C)[C@@H](C(N)=O)NC(=O)[C@H](Cc3c[nH]c4ccccc34)NC(=O)[C@H](CCCNC(=N)N)NC(=O)[C@@H](Cc3ccccc3)NC(=O)[C@H](Cc3cnc[nH]3)NC(=O)[C@@H](C)NC2=O)C1=O", "note": "[Hydantoin(C(O)-(Nle-Gly))-c(Cys-D-Ala-His-D-Phe-Arg-Trp-Pen)-NH2]", "values": [{"measurement": "EC50", "setting": "[2]", "value": 352, "unit": "nM"}, {"measurement": "EC50", "setting": "[3]", "value": 0.584, "unit": "nM"}, {"measurement": "EC50", "setting": "[4]", "value": 21.5, "unit": "nM"}, {"measurement": "EC50", "setting": "[5]", "value": 17, "unit": "nM"}]}
{"smiles": "CCCC[C@H](N)C(=O)N[C@H]1CSSC[C@@H](C(N)=O)NC(=O)CCCCNC(=O)[C@H](Cc2c[nH]c3ccccc23)NC(=O)[C@H](CCCNC(=N)N)NC(=O)[C@@H](Cc2ccccc2)NC(=O)[C@H](Cc2c[nH]cn2)NC1=O", "note": "[Nle-c(Cys-His-D-Phe-Arg-Trp-Apn-Cys)-NH2] (H-[Nle]CH[dF]RW[Ava]C-NH2; disulfide 2-8)", "values": [{"measurement": "EC50", "setting": "[2]; Table 9A/9B, read-out: EC50 hMC5-R", "value": 3.1, "unit": "nM"}, {"measurement": "EC50", "setting": "[3]; Table 9A/9B, read-out: EC50 hMC4-R", "value": 0.018, "unit": "nM"}, {"measurement": "EC50", "setting": "[4]; Table 9A/9B, read-out: EC50 hMC3-R", "value": 0.27, "unit": "nM"}, {"measurement": "EC50", "setting": "[5]; Table 9A/9B, read-out: EC50 hMC1-R", "value": 0.31, "unit": "nM"}]}
